Measurements taken from patent US20210293825A1, “METHODS FOR PRECISION THERAPEUTIC TARGETING OF HUMAN CANCER CELL MOTILITY AND KITS THEREOF” (UNITED STATES GOVERNMENT AS REPRESENTED BY THE DEPARTMENT …, priority 2018, published 2021).
Like-named read-outs stand apart in the source and are kept apart here.

Key:
PC3-M cells = assay: Three day MTT cell growth inhibition assay, PC3-M cells; assay type: cell-based, human
[1] = test system: human cord blood CD34+ stem cells; assay: Hematopoietic stem cell colony formation assay; assay type: cell-based; conditions: colonies at 14 days
Text: FIG. 1a is a schematic flow of probe synthesis and development strategy. […] Values are mean±SEM of a single experiment in replicates of N=4, with similar findings in multiple separate experiments (also N=4). […] Values are mean±SEM of a single experiment in replicates of N=24, with similar findings in a separate experiment (also N=24). *Denotes Student's t test P value <0.05, compared to controls. […] Values are mean±SEM from N>2 separate experiments, each in replicates of N=3. […] Values are the mean±SD number of total, CFU-GM, CFU-GEMM or BFU-E colonies at 14 days after treatment with KBU2046, from a single experiment in replicates of N=2. […] Values are the mean±SD of a single experiment, with similar results seen in a separate experiment, both in replicates of N=2.
Hematopoietic Stem Cell Colony Formation Assay. Fourteen-day colony formation assays were conducted as described (Bergan, R. et al., Blood 88, 731-41 (1996)), using human cord blood CD34+ stem cells (AllCells Inc.), using MethoCultExpress™ colony growth media (StemCell Technologies Inc.), performed in replicates of N=2.

[2] = Plasma KBU2046 concentration after dosing in chow; assay type: in vivo, athymic mice; conditions: Balb/c athymic, mouse, oral
Method: Cohorts of N=12 athymic mice bearing human PCa PC3-M cell orthotopic implants (a), or of N=5 non-tumor bearing athymic mice (b), were treated with KBU2046 incorporated into chow, and resultant lung metastasis (a) or plasma KBU2046 concentration (b) measured. Values are the mean±SEM. The relationship between dose and metastasis was evaluated by two-sided ANOVA (a). FIG. 2c a comprehensive characterization of KBU2046 pharmacokinetics. CD1 mice were dosed with 100 mg KBU2046/kg via oral gavage or intravenous injection (iv), and blood collected at the indicated time points (data from mice dosed at 25 mg/kg are in FIG. 12, and corroborate 100 mg/kg findings). For each route and time point, N=3 mice were sampled. Individual data points are the resultant plasma concentrations from individual mice, and are the mean of N=2 measurements. The dotted horizontal line denotes a concentration of 24 nM, which was the concentration of KBU2046 measured in the blood of mice whose metastasis were suppressed by 92% (a-b). […]
KBU2046 Quantification and Pharmacokinetics. […]
Plasma KBU2046 concentrations were measured in duplicate by liquid chromatography-tandem mass spectrometry after sample preparation by solid-phase extraction. […] The mass-to-charge ratios of the precursor-to-product ion reactions monitored were 243.5→125.1 for KBU2046 and 257.0→165.0 for the internal standard. […]

[3] = test system: human breast cancer LM2-4H2N cells; assay: Breast cancer orthotopic implantation / resection survival model; assay type: in vivo, SCID-Beige mice; conditions: post-surgery adjuvant, 25 mg/kg daily oral gavage five times/week
Method: Cohorts of N=12 athymic mice bearing human PCa PC3-M cell orthotopic implants (a), or of N=5 non-tumor bearing athymic mice (b), were treated with KBU2046 incorporated into chow, and resultant lung metastasis (a) or plasma KBU2046 concentration (b) measured. Values are the mean±SEM. The relationship between dose and metastasis was evaluated by two-sided ANOVA (a). FIG. 2c a comprehensive characterization of KBU2046 pharmacokinetics. CD1 mice were dosed with 100 mg KBU2046/kg via oral gavage or intravenous injection (iv), and blood collected at the indicated time points (data from mice dosed at 25 mg/kg are in FIG. 12, and corroborate 100 mg/kg findings). For each route and time point, N=3 mice were sampled. Individual data points are the resultant plasma concentrations from individual mice, and are the mean of N=2 measurements. The dotted horizontal line denotes a concentration of 24 nM, which was the concentration of KBU2046 measured in the blood of mice whose metastasis were suppressed by 92% (a-b). […] Mice were orthotopically implanted with human breast cancer LM2-4H2N cells, the resultant primary tumors resected, and adjuvant treatment begun with KBU2046 by daily oral gavage five times/week. The survival of N=6 mice receiving vehicle was compared to that of N=6 mice receiving 25 mg/kg KBU2046 by the log rank (Mantel-Cox) test.
Breast cancer: orthotopic implantation. […]

SMILES: O=C1c2ccccc2OCC1c1ccc(F)cc1 (racemic) [KBU2046, (±)-3(4-fluorophenyl)chroman-4-one]
- cell growth inhibition (PC3-M cells): no growth inhibitory effects
- toxicity to human bone marrow stem cells [1]: not toxic
- concentration at 35 days ([2]; doses that decreased metastasis, read-out: plasma concentrations): 1.1 to 24 nM
- concentration at 35 days ([2]; read-out: concentration in blood of mice whose metastasis were suppressed by 92%): 24 nM
- survival [3]: significantly prolonged the survival
